Assay results reported in US20170121319A1, “Herbicidal Compounds” (Syngenta Participations AG, priority 2014, published 2017).

What was measured:
Format in all cases: in vivo
Set-up in all cases: key: 5=total damage to plant; 0=no damage to plant
[1] = system: AMARE = Amaranthus retroflexus; experiment: Pre-emergence herbicidal activity, glasshouse pot test
Protocol: (§1) Seeds of a variety of test species were sown in standard soil in pots. After cultivation for one day (pre-emergence) under controlled conditions in a glasshouse (at 24/16° C., day/night; 14 hours light; 65% humidity), the plants were sprayed with an aqueous spray solution derived from the formulation of the technical active ingredient in acetone/water (50:50) solution containing 0.5% Tween 20 (polyoxyethelyene sorbitan monolaurate, CAS RN 9005-64-5). The test plants were then grown in a glasshouse under controlled conditions (at 24/16° C., day/night; 14 hours light; 65% humidity) and watered twice daily. After 13 days, the test was evaluated (5=total damage to plant; 0=no damage to plant). Pre- and post-emergence testing was carried out as detailed above on the compounds A1, A2, A4 and A5 and their respective S-enantiomers.

[2] = system: LOLPE; experiment: as above
Protocol: as §1

[3] = system: ZEAMX = Zea mays; experiment: as above
Protocol: as §1

[4] = system: ABUTH = Abutilon theophrasti; experiment: as above
Protocol: as §1

[5] = system: SETFA = Setaria faberi; experiment: as above; details: for SETFA damage score (0-5): 1000 g/Ha, evaluated after 13 days; for SEFTA damage score (0-5): comparison of enantiomers
Protocol: as §1

[6] = system: ECHCG = Echinochloa crus-galli; experiment: as above
Protocol: as §1

[7] = system: AMARE = Amaranthus retroflexus; experiment: Post-emergence herbicidal activity, glasshouse pot test
Protocol: (§2) Seeds of a variety of test species were sown in standard soil in pots. After 8 days cultivation (post-emergence) under controlled conditions in a glasshouse (at 24/16° C., day/night; 14 hours light; 65% humidity), the plants were sprayed with an aqueous spray solution derived from the formulation of the technical active ingredient in acetone/water (50:50) solution containing 0.5% Tween 20 (polyoxyethelyene sorbitan monolaurate, CAS RN 9005-64-5). The test plants were then grown in a glasshouse under controlled conditions (at 24/16° C., day/night; 14 hours light; 65% humidity) and watered twice daily. After 13 days, the test was evaluated (5=total damage to plant; 0=no damage to plant). Pre- and post-emergence testing was carried out as detailed above on the compounds A1, A2, A4 and A5 and their respective S-enantiomers.

[8] = system: LOLPE; experiment: as above
Protocol: as §2

[9] = system: ZEAMX = Zea mays; experiment: as above
Protocol: as §2

[10] = system: ABUTH = Abutilon theophrasti; experiment: as above
Protocol: as §2

[11] = system: SETFA = Setaria faberi; experiment: as above; details: for SETFA damage score (0-5): 1000 g/Ha, evaluated after 13 days; for SEFTA damage score (0-5): comparison of enantiomers
Protocol: as §2

[12] = system: ECHCG = Echinochloa crus-galli; experiment: as above
Protocol: as §2

[13] = 1000 g/Ha, evaluated after 13 days
[14] = comparison of enantiomers, 62.5 g/Ha
[15] = comparison of enantiomers, 250 g/Ha

Structure (SMILES) | AMARE damage score (0-5) [1, 13] | AMARE damage score (0-5) [1, 14] | AMARE damage score (0-5) [1, 15] | LOLPE damage score (0-5) [2, 13] | LOLPE damage score (0-5) [2, 14] | LOLPE damage score (0-5) [2, 15] | ZEAMX damage score (0-5) [3, 13] | ZEAMX damage score (0-5) [3, 14] | ZEAMX damage score (0-5) [3, 15] | ABUTH damage score (0-5) [4, 13] | ABUTH damage score (0-5) [4, 14] | ABUTH damage score (0-5) [4, 15] | SETFA damage score (0-5) [5] | SEFTA damage score (0-5) ([5]; 250 g/Ha) | ECHCG damage score (0-5) [6, 13] | ECHCG damage score (0-5) [6, 14] | ECHCG damage score (0-5) [6, 15] | AMARE damage score (0-5) [7, 13] | AMARE damage score (0-5) [7, 14] | AMARE damage score (0-5) [7, 15] | further results
COC[C@@H]1C(O)N(c2cc(C(C)(C)C)on2)C(=O)N1C (stereo partly drawn) [Example A4, (4R)-1-(5-tert-butylisoxazol-3-yl)-5-hydroxy-4-(methoxymethyl)-3-methyl-imidazolidin-2-one] | 5 | 5 | 5 | 5 | 0 | 5 | 3 | 0 | 4 | 5 | 1 | 3 | 4 | 5 | 5 | 1 | 5 | 5 | 5 | 5 | LOLPE damage score (0-5) [8, 13]: 5; LOLPE damage score (0-5) [8, 14]: 1; LOLPE damage score (0-5) [8, 15]: 5; ZEAMX damage score (0-5) [9, 13]: 5; ZEAMX damage score (0-5) [9, 15]: 5; ABUTH damage score (0-5) [10, 13]: 5; ABUTH damage score (0-5) [10, 14]: 1; ABUTH damage score (0-5) [10, 15]: 5; SETFA damage score (0-5) [11]: 5; SEFTA damage score (0-5) ([11]; 62.5 g/Ha): 1; SEFTA damage score (0-5) ([11]; 250 g/Ha): 5; ECHCG damage score (0-5) [12, 13]: 5; ECHCG damage score (0-5) [12, 14]: 0; ECHCG damage score (0-5) [12, 15]: 5
CCO[C@@H]1C(O)N(c2cc(C(C)(C)F)on2)C(=O)N1C (stereo partly shown) [Example A5] | 5 | 5 | 5 | 5 | 4 | 5 | 3 | 5 | 5 | 5 | 5 | 5 | 5 | 5 | 5 | 5 | 2 | 5 | 5 | 5 | SEFTA damage score (0-5) ([5]; 62.5 g/Ha): 5; LOLPE damage score (0-5) [8, 13]: 5; LOLPE damage score (0-5) [8, 14]: 5; LOLPE damage score (0-5) [8, 15]: 5; ZEAMX damage score (0-5) [9, 13]: 5; ZEAMX damage score (0-5) [9, 14]: 5; ZEAMX damage score (0-5) [9, 15]: 5; ABUTH damage score (0-5) [10, 13]: 5; ABUTH damage score (0-5) [10, 14]: 5; ABUTH damage score (0-5) [10, 15]: 5; SETFA damage score (0-5) [11]: 5; SEFTA damage score (0-5) ([11]; 62.5 g/Ha): 5; SEFTA damage score (0-5) ([11]; 250 g/Ha): 5; ECHCG damage score (0-5) [12, 13]: 5; ECHCG damage score (0-5) [12, 14]: 5; ECHCG damage score (0-5) [12, 15]: 5
